Test results from ChEMBL document CHEMBL5465560, “Selectivity Literature for EUbOPEN Chemogenomic Library” (2024).
One block for each molecule: values may come before it.

Tests used:
[1] = molecular target: Ephrin type-A receptor 2 (Homo sapiens) (UniProt P29317); details: at 10 µM
[2] = molecular target: Serine/threonine-protein kinase PAK 2 (Homo sapiens) (UniProt Q13177); assay: Selectivity interaction (KinomeScan (DiscoverX)) EUB0000595a PAK2; details: at 10 µM
[3] = molecular target: Serine/threonine-protein kinase WNK3 (Homo sapiens) (UniProt Q9BYP7); assay: Selectivity interaction (KinomeScan (DiscoverX)) EUB0001079a WNK3; details: at 1 µM
[4] = molecular target: T1, Dual serine/threonine and tyrosine protein kinase (Homo sapiens) (UniProt Q6XUX3); assay: Selectivity interaction (KinomeScan (DiscoverX)) EUB0000092b DSTYK; details: at 10 µM
T1 sequence (whole entry): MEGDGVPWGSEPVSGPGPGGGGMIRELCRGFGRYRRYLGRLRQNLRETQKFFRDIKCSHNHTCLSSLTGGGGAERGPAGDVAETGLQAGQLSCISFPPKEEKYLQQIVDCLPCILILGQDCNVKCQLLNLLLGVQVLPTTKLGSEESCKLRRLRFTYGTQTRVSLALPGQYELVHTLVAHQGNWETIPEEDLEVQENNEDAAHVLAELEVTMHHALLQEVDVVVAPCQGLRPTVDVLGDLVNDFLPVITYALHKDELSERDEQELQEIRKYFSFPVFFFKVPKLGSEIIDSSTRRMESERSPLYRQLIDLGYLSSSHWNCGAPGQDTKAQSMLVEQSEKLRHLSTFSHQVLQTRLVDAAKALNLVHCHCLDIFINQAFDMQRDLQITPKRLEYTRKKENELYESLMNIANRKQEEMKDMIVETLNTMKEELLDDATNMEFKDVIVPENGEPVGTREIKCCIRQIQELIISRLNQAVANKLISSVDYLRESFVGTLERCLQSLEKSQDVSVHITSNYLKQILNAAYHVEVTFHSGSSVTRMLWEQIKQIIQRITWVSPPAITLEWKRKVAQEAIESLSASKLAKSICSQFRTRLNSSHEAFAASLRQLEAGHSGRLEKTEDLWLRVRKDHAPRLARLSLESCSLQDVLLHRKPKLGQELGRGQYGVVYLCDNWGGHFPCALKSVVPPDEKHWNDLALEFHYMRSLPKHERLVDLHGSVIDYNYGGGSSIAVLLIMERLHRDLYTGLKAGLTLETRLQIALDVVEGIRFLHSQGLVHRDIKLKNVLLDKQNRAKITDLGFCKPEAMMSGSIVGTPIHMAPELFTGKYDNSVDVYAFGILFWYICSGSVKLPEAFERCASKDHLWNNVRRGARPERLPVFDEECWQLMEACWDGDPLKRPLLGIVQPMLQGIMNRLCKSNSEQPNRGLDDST

[5] = molecular target: T2, Protein kinase C iota type (Homo sapiens) (UniProt P41743); assay: Selectivity interaction (KinomeScan (DiscoverX)) EUB0000092b PRKCI; details: at 10 µM
T2 sequence (whole entry): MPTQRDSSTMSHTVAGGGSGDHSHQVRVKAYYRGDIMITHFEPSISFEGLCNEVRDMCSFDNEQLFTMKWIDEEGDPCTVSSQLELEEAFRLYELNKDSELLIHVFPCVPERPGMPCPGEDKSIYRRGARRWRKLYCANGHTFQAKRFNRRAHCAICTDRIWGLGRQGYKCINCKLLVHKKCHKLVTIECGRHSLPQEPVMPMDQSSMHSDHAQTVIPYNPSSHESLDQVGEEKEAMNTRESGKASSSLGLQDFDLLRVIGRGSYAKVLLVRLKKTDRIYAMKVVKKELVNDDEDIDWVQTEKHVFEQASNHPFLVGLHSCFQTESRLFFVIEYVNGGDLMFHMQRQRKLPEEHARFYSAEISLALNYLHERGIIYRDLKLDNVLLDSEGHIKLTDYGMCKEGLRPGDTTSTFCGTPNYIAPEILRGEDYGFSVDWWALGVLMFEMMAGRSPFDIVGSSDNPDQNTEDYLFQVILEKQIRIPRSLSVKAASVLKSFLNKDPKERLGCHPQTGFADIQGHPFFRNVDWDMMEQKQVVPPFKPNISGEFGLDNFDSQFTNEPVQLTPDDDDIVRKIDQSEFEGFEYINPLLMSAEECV

Focal adhesion kinase 1 = Focal adhesion kinase 1 (Homo sapiens, UniProt Q05397); assay: Selectivity interaction (Upstate Kinase Profiler service (Millipore)) EUB0000056c PTK2; details: at 1 µM
[6] = molecular target: T3, Mitogen-activated protein kinase kinase kinase 2 (Homo sapiens) (UniProt Q9Y2U5); assay: Selectivity interaction (KinomeScan (DiscoverX)) EUB0000655a MAP3K2; details: at 10 µM
T3 sequence (whole entry): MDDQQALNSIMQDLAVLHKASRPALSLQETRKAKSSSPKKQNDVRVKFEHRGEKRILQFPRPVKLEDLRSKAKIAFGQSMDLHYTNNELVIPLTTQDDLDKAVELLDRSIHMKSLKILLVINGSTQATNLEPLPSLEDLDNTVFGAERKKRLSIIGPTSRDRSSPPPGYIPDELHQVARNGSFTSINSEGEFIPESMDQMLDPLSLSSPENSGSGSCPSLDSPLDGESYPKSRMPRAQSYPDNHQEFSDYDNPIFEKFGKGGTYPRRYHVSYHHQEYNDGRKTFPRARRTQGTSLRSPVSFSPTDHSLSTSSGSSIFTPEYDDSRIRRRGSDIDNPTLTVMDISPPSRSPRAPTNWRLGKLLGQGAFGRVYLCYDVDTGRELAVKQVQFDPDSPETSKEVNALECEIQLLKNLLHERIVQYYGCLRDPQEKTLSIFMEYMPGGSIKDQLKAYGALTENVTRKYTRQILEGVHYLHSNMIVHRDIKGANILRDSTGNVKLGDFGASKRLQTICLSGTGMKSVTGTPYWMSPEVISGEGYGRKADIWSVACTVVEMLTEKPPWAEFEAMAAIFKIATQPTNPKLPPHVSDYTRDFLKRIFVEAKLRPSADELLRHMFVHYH

[7] = molecular target: T4, Serine/threonine-protein kinase Sgk3 (Homo sapiens) (UniProt Q96BR1); assay: Selectivity interaction (KinomeScan (DiscoverX)) EUB0000666a SGK3; details: at 10 µM
T4 sequence (whole entry): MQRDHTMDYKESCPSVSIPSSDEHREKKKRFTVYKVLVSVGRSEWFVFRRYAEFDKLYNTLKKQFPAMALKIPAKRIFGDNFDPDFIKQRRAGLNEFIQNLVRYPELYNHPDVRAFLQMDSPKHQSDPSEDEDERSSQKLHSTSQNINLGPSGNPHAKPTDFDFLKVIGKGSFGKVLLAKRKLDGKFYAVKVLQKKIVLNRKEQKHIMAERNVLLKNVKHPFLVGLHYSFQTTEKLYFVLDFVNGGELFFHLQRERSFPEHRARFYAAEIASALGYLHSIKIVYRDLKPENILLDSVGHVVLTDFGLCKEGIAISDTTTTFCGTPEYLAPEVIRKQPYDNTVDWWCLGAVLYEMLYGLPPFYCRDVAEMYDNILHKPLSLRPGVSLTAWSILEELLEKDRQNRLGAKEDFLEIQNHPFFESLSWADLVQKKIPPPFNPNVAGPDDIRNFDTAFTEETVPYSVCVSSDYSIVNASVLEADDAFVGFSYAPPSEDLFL

Focal adhesion kinase 1, sequence (Q05397 2-1052 limits assumed): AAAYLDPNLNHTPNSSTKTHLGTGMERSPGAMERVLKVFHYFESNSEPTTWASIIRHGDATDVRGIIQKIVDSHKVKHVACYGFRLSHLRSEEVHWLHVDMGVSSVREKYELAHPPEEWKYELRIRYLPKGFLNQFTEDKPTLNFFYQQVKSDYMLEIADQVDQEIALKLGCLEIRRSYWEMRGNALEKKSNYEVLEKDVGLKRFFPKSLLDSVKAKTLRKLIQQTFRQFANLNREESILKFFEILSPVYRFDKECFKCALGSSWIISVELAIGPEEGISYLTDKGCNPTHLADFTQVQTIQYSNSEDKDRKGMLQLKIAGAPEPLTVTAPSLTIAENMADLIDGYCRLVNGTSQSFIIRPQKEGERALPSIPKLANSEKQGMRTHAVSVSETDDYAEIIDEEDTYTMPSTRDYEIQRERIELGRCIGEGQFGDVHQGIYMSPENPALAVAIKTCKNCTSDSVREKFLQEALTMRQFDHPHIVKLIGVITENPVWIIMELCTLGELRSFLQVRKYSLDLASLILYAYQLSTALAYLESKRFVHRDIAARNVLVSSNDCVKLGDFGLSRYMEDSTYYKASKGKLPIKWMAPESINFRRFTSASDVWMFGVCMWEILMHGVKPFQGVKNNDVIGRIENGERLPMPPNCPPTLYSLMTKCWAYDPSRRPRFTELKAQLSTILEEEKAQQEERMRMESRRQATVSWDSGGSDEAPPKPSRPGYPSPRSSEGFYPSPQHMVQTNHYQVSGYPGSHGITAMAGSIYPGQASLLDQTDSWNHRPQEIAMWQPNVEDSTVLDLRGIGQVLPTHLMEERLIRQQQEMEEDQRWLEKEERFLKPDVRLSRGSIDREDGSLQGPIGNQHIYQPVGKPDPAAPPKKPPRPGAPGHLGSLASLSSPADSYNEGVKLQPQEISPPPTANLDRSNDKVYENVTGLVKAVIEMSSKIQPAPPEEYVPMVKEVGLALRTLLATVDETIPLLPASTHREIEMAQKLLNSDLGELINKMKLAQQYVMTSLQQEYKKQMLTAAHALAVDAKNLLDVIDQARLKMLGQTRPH
Ephrin type-A receptor 2 (Homo sapiens), sequence (P29317 whole entry): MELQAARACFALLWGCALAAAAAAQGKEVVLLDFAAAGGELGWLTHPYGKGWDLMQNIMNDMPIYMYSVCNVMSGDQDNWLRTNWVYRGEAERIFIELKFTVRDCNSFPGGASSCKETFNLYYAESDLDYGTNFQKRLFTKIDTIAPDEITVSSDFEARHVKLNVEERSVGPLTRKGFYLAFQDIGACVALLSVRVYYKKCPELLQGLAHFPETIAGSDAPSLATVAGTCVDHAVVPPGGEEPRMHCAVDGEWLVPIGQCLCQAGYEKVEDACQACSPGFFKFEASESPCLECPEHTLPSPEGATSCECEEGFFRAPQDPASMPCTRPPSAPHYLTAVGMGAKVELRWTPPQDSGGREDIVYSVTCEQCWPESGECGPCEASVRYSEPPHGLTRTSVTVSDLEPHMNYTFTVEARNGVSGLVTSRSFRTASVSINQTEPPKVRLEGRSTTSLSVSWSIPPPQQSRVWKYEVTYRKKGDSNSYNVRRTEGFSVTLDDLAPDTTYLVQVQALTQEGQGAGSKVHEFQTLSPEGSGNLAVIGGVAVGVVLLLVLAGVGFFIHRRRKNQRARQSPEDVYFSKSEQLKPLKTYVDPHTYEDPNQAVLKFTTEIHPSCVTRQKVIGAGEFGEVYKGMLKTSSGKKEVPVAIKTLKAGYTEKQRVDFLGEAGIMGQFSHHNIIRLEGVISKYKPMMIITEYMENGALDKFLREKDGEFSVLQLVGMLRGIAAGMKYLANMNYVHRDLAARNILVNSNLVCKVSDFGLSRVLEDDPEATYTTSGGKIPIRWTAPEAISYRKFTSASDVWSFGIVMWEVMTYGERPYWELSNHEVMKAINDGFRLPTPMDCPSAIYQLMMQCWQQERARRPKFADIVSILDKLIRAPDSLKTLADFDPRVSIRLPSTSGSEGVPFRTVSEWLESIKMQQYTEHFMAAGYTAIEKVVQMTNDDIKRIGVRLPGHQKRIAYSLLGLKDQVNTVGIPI
Serine/threonine-protein kinase PAK 2 (Homo sapiens), sequence (Q13177 whole entry): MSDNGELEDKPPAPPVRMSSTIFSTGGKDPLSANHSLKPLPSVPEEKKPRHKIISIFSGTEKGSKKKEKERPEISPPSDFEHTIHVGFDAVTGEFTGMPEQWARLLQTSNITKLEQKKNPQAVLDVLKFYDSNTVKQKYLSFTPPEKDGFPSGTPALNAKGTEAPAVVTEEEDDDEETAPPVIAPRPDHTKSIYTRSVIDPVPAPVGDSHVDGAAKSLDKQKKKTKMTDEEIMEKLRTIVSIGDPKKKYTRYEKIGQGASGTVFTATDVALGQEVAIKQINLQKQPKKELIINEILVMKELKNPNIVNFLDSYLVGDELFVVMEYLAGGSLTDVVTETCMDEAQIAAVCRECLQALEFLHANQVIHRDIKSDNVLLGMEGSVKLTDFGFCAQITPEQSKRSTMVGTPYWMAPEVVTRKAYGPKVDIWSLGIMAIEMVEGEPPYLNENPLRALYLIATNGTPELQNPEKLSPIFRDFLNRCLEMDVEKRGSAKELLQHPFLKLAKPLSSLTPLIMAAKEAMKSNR
Serine/threonine-protein kinase WNK3 (Homo sapiens), sequence (Q9BYP7 whole entry): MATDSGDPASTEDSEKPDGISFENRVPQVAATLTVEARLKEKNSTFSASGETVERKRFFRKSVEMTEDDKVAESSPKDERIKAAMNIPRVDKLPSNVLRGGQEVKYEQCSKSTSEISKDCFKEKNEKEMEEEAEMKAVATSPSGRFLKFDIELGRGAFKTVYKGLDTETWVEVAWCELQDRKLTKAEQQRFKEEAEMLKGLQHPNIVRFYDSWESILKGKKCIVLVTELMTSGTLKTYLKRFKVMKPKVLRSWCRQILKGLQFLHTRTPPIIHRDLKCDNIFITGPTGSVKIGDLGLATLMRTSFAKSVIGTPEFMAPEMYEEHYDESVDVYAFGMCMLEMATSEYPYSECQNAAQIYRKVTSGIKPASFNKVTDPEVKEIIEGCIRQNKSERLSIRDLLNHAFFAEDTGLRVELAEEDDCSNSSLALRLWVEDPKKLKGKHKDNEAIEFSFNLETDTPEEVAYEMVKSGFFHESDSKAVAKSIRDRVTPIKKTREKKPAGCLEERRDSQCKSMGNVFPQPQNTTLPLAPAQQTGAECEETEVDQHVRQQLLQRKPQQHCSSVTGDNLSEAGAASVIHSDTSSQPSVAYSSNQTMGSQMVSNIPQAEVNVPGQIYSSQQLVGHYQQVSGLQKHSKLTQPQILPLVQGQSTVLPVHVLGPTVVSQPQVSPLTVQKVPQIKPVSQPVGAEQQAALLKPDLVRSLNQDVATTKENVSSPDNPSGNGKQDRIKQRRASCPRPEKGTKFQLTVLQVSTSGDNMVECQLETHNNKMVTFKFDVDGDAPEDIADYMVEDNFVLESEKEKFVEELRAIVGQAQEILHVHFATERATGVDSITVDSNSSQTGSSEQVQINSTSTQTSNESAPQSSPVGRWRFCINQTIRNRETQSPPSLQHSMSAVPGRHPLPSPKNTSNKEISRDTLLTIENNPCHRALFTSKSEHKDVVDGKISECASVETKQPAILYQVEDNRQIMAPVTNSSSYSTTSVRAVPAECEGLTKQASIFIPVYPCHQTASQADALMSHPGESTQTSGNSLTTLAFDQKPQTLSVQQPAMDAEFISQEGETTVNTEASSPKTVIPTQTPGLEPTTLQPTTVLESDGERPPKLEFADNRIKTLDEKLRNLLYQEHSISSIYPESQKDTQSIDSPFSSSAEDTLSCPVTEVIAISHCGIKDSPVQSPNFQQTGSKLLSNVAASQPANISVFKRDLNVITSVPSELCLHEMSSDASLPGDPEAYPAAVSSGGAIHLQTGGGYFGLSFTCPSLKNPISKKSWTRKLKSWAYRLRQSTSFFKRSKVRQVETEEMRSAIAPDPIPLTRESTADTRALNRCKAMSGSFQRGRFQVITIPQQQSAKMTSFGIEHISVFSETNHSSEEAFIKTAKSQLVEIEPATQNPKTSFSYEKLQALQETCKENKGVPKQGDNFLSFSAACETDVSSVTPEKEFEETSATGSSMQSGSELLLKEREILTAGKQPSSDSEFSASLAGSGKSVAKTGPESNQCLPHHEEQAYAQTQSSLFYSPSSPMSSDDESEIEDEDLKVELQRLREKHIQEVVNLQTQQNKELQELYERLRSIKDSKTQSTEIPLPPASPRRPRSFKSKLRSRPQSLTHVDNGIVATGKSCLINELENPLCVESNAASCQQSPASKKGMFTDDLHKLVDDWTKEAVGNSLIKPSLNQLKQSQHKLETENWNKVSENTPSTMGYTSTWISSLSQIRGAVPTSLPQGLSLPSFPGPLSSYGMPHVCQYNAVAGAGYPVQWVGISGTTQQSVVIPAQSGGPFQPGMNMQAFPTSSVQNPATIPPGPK

SMILES: Cc1cc([C@@H](C)Nc2ccccc2C(=O)O)c2nc(N3CCOCC3)cc(=O)n2c1 [AZD-6482]
% of control [1]: 70%

SMILES: COCC(=O)NC/C=C/c1ccc2ncnc(Nc3ccc(Oc4ccc(C)nc4)c(C)c3)c2c1 [CP-724714]
% of control [2]: 87%

SMILES: Nc1cnc(N2CCc3cc(S(=O)(=O)Nc4c(F)cc(Cl)cc4F)cc(N4CCCC4=O)c32)nc1 [TP-020n]
% of control [3]: 100%

SMILES: CCC(=O)N1CCN(c2ccc(-n3c(=O)ccc4cnc5ccc(-c6cnc7ccccc7c6)cc5c43)cc2C(F)(F)F)CC1
% of control [4]: 28% | % of control [5]: 85%

% of inhibition (Focal adhesion kinase 1): -2%
SMILES: Cc1ccc(-c2ccc3c(ccc4sc5c(c43)NC[C@@H](C)NC5=O)n2)cn1

SMILES: CN(C)CCOc1ccc(-c2nc(-c3ccncc3)c(-c3ccc4c(c3)CC/C4=N\O)[nH]2)cc1
% of control [6]: 69%

SMILES: O=C(NOC[C@H](O)CO)c1ccc(F)c(F)c1Nc1ccc(I)cc1F
% of control [7]: 89%
